How the values were obtained:
[1] = test system: Puccinia recondita f. sp. tritici; test: Test B: preventive spray on wheat seedlings, wheat leaf rust; assay type: in vivo; settings: for pest or weed control at 10 ppm: Puccinia recondita, 192 h, Rate 10 ppm, read-out: Test B disease control rating
Text: (§1) General protocol for preparing test suspensions for Tests A-F: the test compounds were first dissolved in acetone in an amount equal to 3% of the final volume and then suspended at the desired concentration (in ppm) in acetone and purified water (50/50 mix by volume) containing 250 ppm of the surfactant PEG400 (polyhydric alcohol esters). The resulting test suspensions were then used in Tests A-F.
The test solution was sprayed to the point of run-off on wheat seedlings. The following day the seedlings were inoculated with a spore suspension of Puccinia recondita f. sp. tritici (the causal agent of wheat leaf rust) and incubated in a saturated atmosphere at 20° C. for 24 h, and then moved to a growth chamber at 20° C. for 7 days, after which time disease ratings were made.
(§2) A rating of 100 indicates 100% disease control and a rating of 0 indicates no disease control (relative to the controls). A dash (-) indicates the compound was not tested.

Phakopsora pachyrhizi = test: Test D: preventive spray on soybean seedlings, Asian soybean rust; assay type: in vivo; settings: for pest or weed control at 10 ppm: Phakopsora pachyrhizi, 216 h, Rate 10 ppm, read-out: Test D disease control rating
Text: as §1
The test solution was sprayed to the point of run-off on soybean seedlings. The following day the seedlings were inoculated with a spore suspension of Phakopsora pachyrhizi (the causal agent of Asian soybean rust) and incubated in a saturated atmosphere at 22° C. for 24 h and then moved to a growth chamber at 22° C. for 8 days, after which time visual disease ratings were made.
as §2

[2] = test system: Blumeria graminis f. sp. tritici; test: Test C: preventive spray on wheat seedlings, wheat powdery mildew; assay type: in vivo; settings: Rate 250 ppm
Text: as §1
The test suspension was sprayed to the point of run-off on wheat seedlings. The following day the seedlings were inoculated with a spore dust of Blumeria graminis f. sp. tritici, (also known as Erysiphe graminis f. sp. tritici, the causal agent of wheat powdery mildew) and incubated in a growth chamber at 20° C. for 8 days, after which time visual disease ratings were made.
as §2

Alternaria solani = test: Test F: preventive spray on tomato seedlings, tomato early blight; assay type: in vivo; settings: Rate 250 ppm
Text: as §1
(§3) The test suspension was sprayed to the point of run-off on tomato seedlings. The following day the seedlings were inoculated with a spore suspension of Alternaria solani (the causal agent of tomato early blight) and incubated in a saturated atmosphere at 27° C. for 48 h, and then moved to a growth chamber at 20° C. for 3 days, after which time visual disease ratings were made.
as §2

Zymoseptoria tritici = test: Test A: preventive spray on wheat seedlings, wheat leaf blotch; assay type: in vivo; settings: Rate 250 ppm
Text: as §1
The test solution was sprayed to the point of run-off on wheat seedlings. The following day the seedlings were inoculated with a spore suspension of Zymoseptoria tritici (the causal agent of wheat leaf blotch) and incubated in a saturated atmosphere at 24° C. for 48 h, and then moved to a growth chamber at 20° C. for 17 days, after which time disease ratings were made.
as §2

Botrytis cinerea = test: Test E: preventive spray on tomato seedlings, tomato Botrytis; assay type: in vivo; settings: Rate 250 ppm
Text: as §1
as §3, with “Botrytis cinerea” for “Alternaria solani”, “Botrytis)” for “early blight)”, “20°” for “27°”, “24°” for “20°”
as §2

| Compound | melting point | pest or weed control at 10 ppm [1] | pest or weed control at 10 ppm (Phakopsora pachyrhizi) | Test B disease control rating ([1]; Rate 250 ppm) | Test C disease control rating [2] | Test D disease control rating (Phakopsora pachyrhizi; Rate 250 ppm) | Test F disease control rating (Alternaria solani) | Test A disease control rating (Zymoseptoria tritici) | Test E disease control rating (Botrytis cinerea) |
| --- | --- | --- | --- | --- | --- | --- | --- | --- | --- |
| CO/N=C(\C)c1cc(F)c(-n2ncc(-c3ccc(C)c(CNC(=O)OC)c3)n2)c(F)c1 [Compound 142, methyl (E)-N-[[5-[2-[2,6-difluoro-4-[1-(methoxyimino)ethyl]phenyl]-2H-1,2,3-triazol-4-yl]-2-methylphenyl]methyl]carbamate] | 104 to 108 °C | 86% | 100% | – | – | – | – | – | – |
| COC(=O)NNc1cc(-c2ccn(-c3c(F)cc(Cl)cc3F)n2)ccc1C [Compound 153] | 153 to 156 °C | 68% | 91% | – | – | – | – | – | – |
| COC(=O)NCc1cc(-c2cn(-c3c(F)cc(F)cc3Cl)nn2)ccc1C [compound 122] | – | – | – | 99% | 0% | 100% | 0% | 71% | 0% |

From US20230165251A1, “SUBSTITUTED TOLYL FUNGICIDES AND THEIR MIXTURES” (FMC Corporation, priority 2020, published 2023)
